Data on 16 compounds can be found in US9080197B2, “Equol level regulator” (priority 2005, dated 2015).

One assay relates to feces of an equol producer (microorganisms having conversion ability to equol). As to the kind of experiment: Effect of carbohydrates upon equol production in anaerobic culture of feces of an equol producer with daidzein. The assay is classed as cell-based. The settings on record: 100 μM of daidzein added, carbohydrate 1%. The text has this:
The equol concentration regulating activity of a carbohydrate can be checked by taking feces from a human having ability to produce equol (equol producer), adding daidzein serving as a substrate for equol and a target carbohydrate to the feces thus taken, culturing the feces, determining the concentration of equol in the culture medium and fitting the determined equol concentration to the following equation in comparison with the concentration of equol in a culture medium containing no carbohydrate. Equal concentration regulating activity (%)=(equol concentration of a culture medium containing a target carbohydrate)/(equol concentration of a culture medium containing no carbohydrate)×100
Fresh feces of an equol producer were suspended in a dilute solution (10-fold by volume) containing 0.00255% of KH2PO4, 0.00255% of K2HPO4, 0.006% of NaCl, […] of (NH4)2SO4, 0.000255% of CaCl2, 0.000255% of MgSO4, 0.1% of a 0.1% resazurin solution, 2.2% of an 8% Na2CO3 solution and 0.05% of L-cysteine hydrochloride by use of glass beads (φ 3 mm) in anaerobic conditions and solid matter was removed by use of sterilized gauze. The solution was centrifuged at 8,000 rpm for 10 minutes. Precipitation was suspended in a dilute solution in the same amount thereof. The solution was stored in a freezer at −30° C. as it was.
The feces dilution solution was thawed and centrifuged again. Precipitation was resuspended in PY medium (100-fold by volume) containing 0.5% of peptone, 0.5% of trypticase peptone, 1% of yeast extract, 0.00005% of hemin, 0.0001% of vitamin K1, 0.05% of L-cysteine hydrochloride, 0.0006% of KH2PO4, 0.0006% of K2HPO4, 0.0012% of NaCl, 0.0006% of (NH4)2SO4, 0.00006% of CaCl2 and 0.00006% of MgSO4. At this time, adonitol, arabinose, cellobiose, erythritol, fructo-oligosaccharide, fructose, galactose, glucose, glycogen, inositol, […], lactitol, lactose, lactulose, maltose, mannitol, mannose, melezitose, melibiose, raffinose, rhamnose, ribose, sorbitol, sorbose, sucrose, trehalose, xylose, or galacto-oligosaccharide was added so as to obtain a final concentration of 1%. Simultaneously, a series of sample containing no carbohydrate was prepared. To the series of samples, daidzein was added so as to obtain a final concentration of 100 μM. Culture was performed in completely anaerobic conditions at 37° C. for 16 hours. Note that culture was performed independently in four series. From the culture solution obtained, daidzein and equol were extracted and subjected to HPLC analysis. Note that inositol used herein is myo-inositol manufactured by SIGMA and glycogen was one derived from oyster and manufactured by SIGMA. Trehalose is D(+) trehalose (α,α form) manufactured by SIGMA and galacto-oligosaccharide is TOS-S, which is a mixture of 4′galactosyl-lactose and 6′galactosyl-lactose, and manufactured by Yakult Pharmaceutical Industry Co., Ltd. Fructo-oligosaccharide is a mixture of 1-kestose, nystose and 1-fructosyl-D-nystose manufactured by Wako Pure Chemical Industries, Ltd.
Daidzein and equol were extracted by the following manner. To 500 μL of a culture solution, 250 μL of diethyl ether was added and sufficiently stirred. The solution mixture was centrifuged at 2,000 rpm for 10 minutes to obtain a diethyl ether layer. The remaining aqueous layer was subjected to diethyl ether extraction performed in the same manner. The ether layers obtained in the two extraction operations were combined, concentrated and dried under spray of nitrogen gas flow at 40° C. The dried product was dissolved in 250 μL of 80% methanol and filtrated through a filter to obtain a sample to be subjected to measurement.
Furthermore, HPLC was performed in the following conditions:
Daidzein and equol standard products were poured in the aforementioned conditions to form calibration curves, respectively. In this manner, daidzein and equol concentrations of the samples were determined. […]
Take `OC[C@H]1O[C@@H](O[C@H]2[C@H](O)[C@@H](O)C(O)O[C@@H]2CO)[C@H](O)[C@@H](O)[C@H]1O` (stereo partly drawn) [Lactose, lactose]: the “daidzein added to the medium remaining” value was “mostly remained”.
`OC[C@H]1O[C@@](CO)(O[C@H]2O[C@H](CO)[C@@H](O)[C@H](O)[C@H]2O)[C@@H](O)[C@@H]1O` [Sucrose, sucrose]: the “daidzein added to the medium remaining” value was “mostly remained”.
Consider `OC[C@H]1O[C@H](OC[C@H]2O[C@H](O[C@]3(CO)O[C@H](CO)[C@@H](O)[C@@H]3O)[C@H](O)[C@@H](O)[C@@H]2O)[C@H](O)[C@@H](O)[C@H]1O` [Raffinose, raffinose], for which the “daidzein added to the medium remaining” value is on record as “mostly remained”.

Staying with this assay, now noted: Homo sapiens; relative to medium containing no carbohydrate (=100%); carbohydrate 1%, daidzein 100 μM, 16 hours; read-out: Equol concentration regulating activity.
Turning to `OC[C@H]1O[C@@H](O[C@H]2[C@H](O)[C@@H](O)C(O)O[C@@H]2CO)[C@H](O)[C@@H](O)[C@H]1O` (stereo partly drawn) [Lactose, lactose], the activity at 1 % was 0%.
Regarding `OC[C@@H](O)[C@@H](O[C@@H]1O[C@H](CO)[C@H](O)[C@H](O)[C@H]1O)[C@H](O)[C@@H](O)CO` [Lactitol, lactitol], the activity at 1 % came to 459%.
With `OC[C@@H](O)[C@@H](O)CO` [Erythritol, erythritol], the activity at 1 % was 214%.
Same read-out and setting: in the case of `O=C[C@H](O)[C@@H](O)[C@H](O)CO` [Xylose, xylose] it was 443%; in that of `OC[C@H]1O[C@@](CO)(O[C@H]2O[C@H](CO)[C@@H](O)[C@H](O)[C@H]2O)[C@@H](O)[C@@H]1O` [Sucrose, sucrose], 0%; in that of `O[C@H]1[C@H](O)[C@@H](O)[C@H](O)[C@@H](O)[C@H]1O` [Inositol, myo-inositol], 416%.
Regarding `C[C@H](O)[C@H](O)[C@@H](O)[C@@H](O)C=O` [Rhamnose, rhamnose], the activity at 1 % is 116%.
Take `OC[C@@H](O)[C@@H](O)[C@H](O)[C@@H](O)CO` [Sorbitol, sorbitol]: the activity at 1 % came out at 372%.
Same read-out and setting: in the case of `OC[C@H]1O[C@H](OC[C@H]2O[C@H](O[C@]3(CO)O[C@H](CO)[C@@H](O)[C@@H]3O)[C@H](O)[C@@H](O)[C@@H]2O)[C@H](O)[C@@H](O)[C@H]1O` [Raffinose, raffinose] it was 0%; in that of `O=C[C@H](O)[C@@H](O)[C@H](O[C@@H]1O[C@H](CO)[C@@H](O)[C@H](O)[C@H]1O)[C@H](O)CO` [Cellobiose, cellobiose], 161%.
As for `O=C(CO)[C@@H](O)[C@H](O)[C@H](O)CO` [Fructose, fructose], the activity at 1 % came out at 51.5%.
Consider `O=C[C@@H](O)[C@H](O)[C@H](O)CO` [Arabinose, arabinose], for which the activity at 1 % stood at 391%.
Same read-out and setting: with `O=C[C@H](O)[C@H](O)[C@H](O)CO` [Ribose, ribose] the figure was 330%; with `OC[C@@H](O)[C@@H](O)[C@H](O)[C@H](O)CO` [Mannitol, mannitol], 182%.

The assay is the same for the next values; noted with them: Homo sapiens; sample containing no carbohydrate taken as 100%; carbohydrate 1%; read-out: daidzein-to-equol conversion rate.
For the compound `OC[C@H]1O[C@@H](O[C@H]2[C@H](O)[C@@H](O)C(O)O[C@@H]2CO)[C@H](O)[C@@H](O)[C@H]1O` (stereo partly drawn) [Lactose, lactose], the activity at 1 % was at most 50%.
With `OC[C@@H](O)[C@@H](O[C@@H]1O[C@H](CO)[C@H](O)[C@H](O)[C@H]1O)[C@H](O)[C@@H](O)CO` [Lactitol, lactitol], the activity at 1 % was at least 200%.
As for `OC[C@@H](O)[C@@H](O)CO` [Erythritol, erythritol], the activity at 1 % is at least 200%.
Take `O=C[C@H](O)[C@@H](O)[C@H](O)CO` [Xylose, xylose]: the activity at 1 % is at least 200%.
In the case of `OC[C@H]1O[C@@](CO)(O[C@H]2O[C@H](CO)[C@@H](O)[C@H](O)[C@H]2O)[C@@H](O)[C@@H]1O` [Sucrose, sucrose], the activity at 1 % was at most 50%.
In the case of `O[C@H]1[C@H](O)[C@@H](O)[C@H](O)[C@@H](O)[C@H]1O` [Inositol, myo-inositol], the activity at 1 % was at least 200%.
On to `OC[C@@H](O)[C@@H](O)[C@H](O)[C@@H](O)CO` [Sorbitol, sorbitol], for which the activity at 1 % was at least 200%.
Same read-out and setting: with `OC[C@H]1O[C@H](OC[C@H]2O[C@H](O[C@]3(CO)O[C@H](CO)[C@@H](O)[C@@H]3O)[C@H](O)[C@@H](O)[C@@H]2O)[C@H](O)[C@@H](O)[C@H]1O` [Raffinose, raffinose] the figure was at most 50%; with `O=C[C@@H](O)[C@H](O)[C@H](O)CO` [Arabinose, arabinose], at least 200%; with `O=C[C@H](O)[C@H](O)[C@H](O)CO` [Ribose, ribose], at least 200%.

Staying with this assay, now noted: carbohydrate 1%, daidzein 100 μM, 16 hours.
On to `OC[C@H]1O[C@@H](O[C@H]2[C@H](O)[C@@H](O)C(O)O[C@@H]2CO)[C@H](O)[C@@H](O)[C@H]1O` (stereo partly drawn) [Lactose, lactose], for which the equol production entry is “not observed”.
With `OC[C@H]1O[C@@](CO)(O[C@H]2O[C@H](CO)[C@@H](O)[C@H](O)[C@H]2O)[C@@H](O)[C@@H]1O` [Sucrose, sucrose], the equol production entry is reported as “not observed”.
Turning to `OC[C@H]1O[C@H](OC[C@H]2O[C@H](O[C@]3(CO)O[C@H](CO)[C@@H](O)[C@@H]3O)[C@H](O)[C@@H](O)[C@@H]2O)[C@H](O)[C@@H](O)[C@H]1O` [Raffinose, raffinose], the equol production entry is listed as “not observed”.

The assay is the same for the next values; noted with them: carbohydrate 1%, daidzein 100 μM, anaerobic, 37° C., 16 hours; no carbohydrate 18.1 μM.
As for `OC[C@H]1O[C@@H](O[C@H]2[C@H](O)[C@@H](O)C(O)O[C@@H]2CO)[C@H](O)[C@@H](O)[C@H]1O` (stereo partly drawn) [Lactose, lactose], the “Equol concentration in medium” value stood at 0.0 µM.
Turning to `OC[C@@H](O)[C@@H](O[C@@H]1O[C@H](CO)[C@H](O)[C@H](O)[C@H]1O)[C@H](O)[C@@H](O)CO` [Lactitol, lactitol], the “Equol concentration in medium” value came out at 82.9 µM.
As to `OC[C@@H](O)[C@@H](O)CO` [Erythritol, erythritol], the “Equol concentration in medium” value is 38.7 µM.
On the same count and under the same terms, with `O=C[C@H](O)[C@@H](O)[C@H](O)CO` [Xylose, xylose] the figure was 79.9 µM.
Consider `OC[C@H]1O[C@@](CO)(O[C@H]2O[C@H](CO)[C@@H](O)[C@H](O)[C@H]2O)[C@@H](O)[C@@H]1O` [Sucrose, sucrose], for which the “Equol concentration in medium” value came to 0.0 µM.
`O[C@H]1[C@H](O)[C@@H](O)[C@H](O)[C@@H](O)[C@H]1O` [Inositol, myo-inositol]: the “Equol concentration in medium” value was determined as 75.2 µM.
On to `C[C@H](O)[C@H](O)[C@@H](O)[C@@H](O)C=O` [Rhamnose, rhamnose], for which the “Equol concentration in medium” value was found to be 21.0 µM.
As for `OC[C@H]1O[C@H](OCC2O[C@@H](O)[C@H](O)[C@@H](O)[C@@H]2O)[C@H](O)[C@@H](O)[C@H]1O` (stereo partly drawn) [Melibiose, melibiose], the “Equol concentration in medium” value was 4.5 µM.
On to `OC[C@@H](O)[C@@H](O)[C@H](O)[C@@H](O)CO` [Sorbitol, sorbitol], for which the “Equol concentration in medium” value was found to be 67.3 µM.
For `OC[C@H]1O[C@H](OC[C@H]2O[C@H](O[C@]3(CO)O[C@H](CO)[C@@H](O)[C@@H]3O)[C@H](O)[C@@H](O)[C@@H]2O)[C@H](O)[C@@H](O)[C@H]1O` [Raffinose, raffinose], the “Equol concentration in medium” value is 0.0 µM.
In the case of glycogen, the “Equol concentration in medium” value was 33.4 µM.
Regarding `O=C[C@H](O)[C@@H](O)[C@H](O[C@@H]1O[C@H](CO)[C@@H](O)[C@H](O)[C@H]1O)[C@H](O)CO` [Cellobiose, cellobiose], the “Equol concentration in medium” value amounted to 29.0 µM.
For `O=C(CO)[C@@H](O)[C@H](O)[C@H](O)CO` [Fructose, fructose], the “Equol concentration in medium” value amounted to 9.3 µM.
Consider `O=C[C@@H](O)[C@H](O)[C@H](O)CO` [Arabinose, arabinose], for which the “Equol concentration in medium” value is 70.6 µM.
The same measure, in the same setting: with `O=C[C@H](O)[C@H](O)[C@H](O)CO` [Ribose, ribose] the figure was 59.5 µM.
On to `OC[C@@H](O)[C@@H](O)[C@H](O)[C@H](O)CO` [Mannitol, mannitol], for which the “Equol concentration in medium” value was 32.9 µM.

Staying with this assay, now noted: relative to medium containing no carbohydrate (=100%); carbohydrate 1%, daidzein 100 μM, 16 hours.
Turning to `OC[C@H]1O[C@H](OCC2O[C@@H](O)[C@H](O)[C@@H](O)[C@@H]2O)[C@H](O)[C@@H](O)[C@H]1O` (stereo partly drawn) [Melibiose, melibiose], the “Equol concentration regulating activity” value amounted to 24.8%.
The same measure, in the same setting: with glycogen the figure was 184.8%.
